Patent publication US10662210B2, “Compositions and methods comprising osmium for the treatment of cancers” (Massachusetts Institute of Technology, priority 2014, dated 2020)

Experiments:
[1] = Water-octanol partition coefficient (log P), shake-flask method with GF-AAS; format: physicochemical; settings: room temperature, 50 μM
Method: Those of ordinary skill in the art would be knowledgeable of methods of determining the water-octanol partition coefficient of compounds. For example, the log P of a compound may be obtained using the shake-flask method and graphite furnace atomic absorption spectroscopy (GF-AAS). Briefly, in the shake-flask method, octanol is pre-saturated with water by overnight incubation with shaking of a biphasic mixture of the two at room temperature. A portion of 0.5 mL water containing 50 μM of the given compound is incubated with the pre-saturated octanol (0.5 mL) in a 1.5 mL tube. The tube is shaken at room temperature for 3 hours. The two phases are separated by centrifugation and the osmium content (concentration) in each phase is determined by GFAAS. The log P is then calculated using the formula below: log P=log 10[(concentration of osmium in the octanol layer)/(concentration of osmium in the water layer)].
The log P values were obtained using the shake-flask method and graphite furnace atomic absorption spectroscopy (GF-AAS). Octanol used in this experiment was pre-saturated with water by overnight incubation with shaking of a biphasic mixture of the two at room temperature. A portion of 0.5 mL water containing 50 μM of the given compound was incubated with the pre-saturated octanol (0.5 mL) in a 1.5 mL tube. The tube was shaken at room temperature for 3 h. The two phases were separated by centrifugation and the osmium content (concentration) in each phase was determined by GFAAS. All the experiments were carried out in triplicate. The log P was then calculated using the formula below: Log P=log 10[(conc. of osmium in the octanol layer)/(conc. of osmium in the water layer)].

[2] = test system: pUC19 plasmid DNA; assay: Agarose gel electrophoresis of plasmid DNA; format: biochemical; settings: 24 h, 37° C.
Method: The osmium compounds were hypothesized to induce cell death through DNA interactions. Therefore, the interaction of 2 or 4 with pUC19 plasmid DNA was investigated using gel electrophoresis; the results of which are as shown in FIG. 6. As the concentration of 2 increased, there was a clear increase in the amount of nicked circular, and a concomitant decrease in the amount of supercoiled, plasmid DNA. At concentrations >250 μM, the bands in the gel smeared and then disappeared. […] The DNA binding kinetics of 2 and 4 were studied by measuring the amount of osmium bound to precipitated ct-DNA; the results of which are as shown in FIG. 7. The half-life of this reaction for 2 was 2 hours.
Plasmid DNA (pUC19) was kindly donated. The DNA binding ability of the osmium complexes was determined by monitoring the conversion of supercoiled plasmid DNA (form I) to nicked circular DNA (form II) using agarose gel electrophoresis. To probe the effect of Os-complex concentration, solutions containing […] of DNA and 0, 10, 20, 50, 100, 250, 500, and 1000 μM of the osmium complexes with a total reaction volume of 15 μL were incubated at 37° C. for 24 h. […] The DNA bands were analysed under UV light using a Flor-S reader (BioRad).

[3] = test system: phosphorylated eIF2α and CHOP in A2780 cells; assay: Immunoblotting analysis, unfolded protein response; format: cell-based, human; settings: 72 hours
Method: This finding led to the investigation of the possibility that 4 may induce endoplasmic reticulum (ER) stress. Co-administration of 4 and salubrinal (10 μM), a known ER stress inhibitor, reduced the cytotoxicity of 4 in A2780 cells. […] To further validate the ER as the main target for 4, the expression of proteins related to the unfolded protein response (UPR) was monitored. […] ER membrane expansion is widely associated with ER stress. With this fact in mind the ER size of A2780 cells upon incubation with 4 were examined using fluorescence microscopy. Relative to untreated controls (FIG. 3B), cells exposed to 4 (10 μM) for 4 h had 25.1% larger ER coverage (FIG. 3C). The ER size relative to the whole cell of the untreated controls was about 30% and the ER size relative to the whole cell of the treated samples was about 55%.
(§1) A2780 cells (5×10^5 cells) were incubated with the osmium complexes (concentrations, μM) for 72 h at 37° C. Cells were washed with PBS, scraped into SDS-PAGE loading buffer (64 mM Tris-HCl (pH6.8)/9.6% glycerol/2% SDS/5% β-mercaptoethanol/0.01% Bromophenol Blue), and incubated at 95° C. for 10 min. […] After incubation with horseradish peroxidase-conjugated secondary antibodies (Cell Signalling Technology), immune complexes were detected with the ECL detection reagent (BioRad) and analyzed using an Alpha Innotech ChemiImager™ 5500 fitted with a chemiluminescence filter.

[4] = test system: p53, p21 and BAX in A2780 cells; assay: Immunoblotting analysis, p53 pathway; format: cell-based, human; settings: for p53 expression: vs untreated cells
Method: Having established the intracellular targets of 2 and 4, the role of p53, a cell cycle and apoptosis regulator, in the cellular responses evoked was investigated. […] Therefore, p53 played a fundamental role in coordinating the cellular response to 2-induced DNA damage. […] (FIG. 13). […] To relate p53 to potency, cytotoxicity studies were conducted in the presence of p53 inhibitors pifithrin-α and pifithrin-μ. (both 10 μM). […] The IC50 values of compound 2 in the absence and presence of p53 inhibitor pifithrin-μ after 72 hours incubation was about 2 μM and about 30 μM, respectively.
A2780 cells (5×10^5 cells) were incubated with the osmium complexes (concentrations, μM) for 72 h at 37° C. Cells were washed with PBS, scraped into SDS-PAGE loading buffer (64 mM Tris-HCl (pH6.8)/9.6% glycerol/2% SDS/5% β-mercaptoethanol/0.01% Bromophenol Blue), and incubated at 95° C. for 10 min. Whole cell lysates were resolved by 4-20% sodium dodecylsulphate polyacylamide gel electrophoresis (SDS-PAGE; 200 V for 25 min) followed by electro transfer to polyvinylidene difluoride membrane, PVDF (350 mA for 1 h). Membranes were blocked in 5% (w/v) non-fat milk in PBST (PBS/0.1% Tween 20) and incubated with the appropriate primary antibodies (Cell Signalling Technology and Santa Cruz). After incubation with horseradish peroxidase-conjugated secondary antibodies (Cell Signalling Technology), immune complexes were detected with the ECL detection reagent (BioRad) and analyzed using an Alpha Innotech ChemiImager™ 5500 fitted with a chemiluminescence filter.

[5] = test system: cleaved caspase 3, 7, 9 and PARP in A2780 cells; assay: Immunoblotting analysis, apoptosis pathway; format: cell-based, human; settings: 72 h
Method: To have a more complete understanding of the cellular response induced by 2 or 4, their mode of cell killing was evaluated. Many clinically approved cancer drugs exert their cytotoxic effects through apoptosis, and so the features related to this pathway were monitored. Apoptotic cells underwent morphological changes that lead to cell membrane disorientation. […] Cells can undergo other forms of cell death such as necrosis and autophagy. To probe these pathways, cytotoxicity assays were carried out in the presence of […], chloroquine, and IM-54, respectively. Because both chloroquine and IM-54 had little effect on the potency of either of the osmium complexes, necrosis and autophagy were ruled out as possible death pathways. […] On the other hand, 4 initiated ER stress, culminating in p53 independent, caspase directed apoptosis (FIG. 4).
as §1, with “C.” for “C. Cells were washed with PBS, scraped into SDS-PAGE loading buffer (64 mM Tris-HCl (pH6.8)/9.6% glycerol/2% SDS/5% β-mercaptoethanol/0.01% Bromophenol Blue), and incubated at 95° C. for 10 min.”

[6] = test system: Eμ-Mycp19arf−/− lymphoma cells; assay: RNAi signatures, GFP competition assay; settings: for shChk2 log 2(RI) value / shp53 log 2(RI) value: LD80-90 concentration; for RNAi signature classification against reference set: probabilistic K-nearest neighbors
Text: This RNAi-based methodology relied on a fluorescence competition assay involving lymphoma cells that were partially infected with one of eight distinct short hairpin RNAs (shRNAs). shRNA-bearing cells will either enrich or deplete relative to the uninfected population based on drug survival advantage or disadvantage conferred by a given shRNA. […] The signature of a novel compound was compared to those of a reference set of drugs using a probabilistic K-nearest neighbors algorithm to determine whether it belonged to a class in the reference set or a new category that was not represented in the reference set.
Compounds were dosed to achieve an LD80-90 in Eμ-Myc^p19arf−/− cells by propidium iodide exclusion as determined by FACS after a 48 h incubation. GFP enrichment/depletion was then determined by FACS at 72 h. […] All FACS was conducted using a FACScan (BD Biosciences).
Eμ-Myc^p19arf−/− lymphoma or p185+ BCR-Abl^p19arf−/− leukemia cells were infected with GFP-tagged shRNAs such that 15-25% of the population were GFP positive. An eighth of a million cells in 250 μL B-cell media (BCM) were then seeded into 24-well plates. For wells that would remain untreated as a control, only 1/16th of a million cells were seeded. Next, 250 μL of media containing the active agent was added to the cells. After 24 h, 300 μL of cells from untreated wells are removed and replaced by 300 μL fresh BCM. All wells then received 500 μL BCM before being placed by in the incubator for another 24 h. At 48 h, cells transduced with the control vector, MLS, were checked for viability via FACS on a FACScan (BD Biosciences) using propidium iodide as a live/dead marker. Untreated wells then had 700 μL of cells removed and replaced with 700 μL fresh media followed by a further 1 mL of fresh media. […] Finally, at 72 h, all wells for which an LD80-90 was achieved, as well as the untreated samples, were analyzed via FACS to determine GFP % enrichment.

Compound: [N]#[Os]1([Cl])([Cl])([Cl])[N]2C=CC=c3ccc4c(c32)[N]1C=CC=4 [Complex 2, OsN(1,10-phenanthroline)Cl3]
- log P (water-octanol coefficient) [1]: 1.26
- effect on pUC19 DNA in gel electrophoresis [2]: induced conformational changes and degradation of circular DNA
- phosphorylated eIF2α and CHOP expression [3]: little effect
- p21 and BAX expression [4]: dose-dependent increase
- p53 expression [4]: higher p53 expression
- expression of apoptosis positive proteins [5]: expressed apoptosis positive proteins, cleaved caspase 3, 7, 9, and poly ADP ribose polymerase (PARP)
- shChk2 log 2(RI) value [6]: 2.6
- shp53 log 2(RI) value [6]: 2.7
- RNAi signature classification against reference set [6]: represented novel mechanisms of drug action

Compound: [N]#[Os]1([Cl])([Cl])([Cl])[N]2C=CC(c3ccccc3)=c3ccc4c(c32)[N]1C=CC=4c1ccccc1 [Complex 4, OsN(4,7-diphenyl-1,10-phenanthroline)Cl3]
- log P (water-octanol coefficient) [1]: 1.84
- effect on pUC19 DNA in gel electrophoresis [2]: no visible effect
- phosphorylated eIF2α and CHOP expression [3]: upregulated
- p21 and BAX expression [4]: remained fairly constant
- p53 expression [4]: did not increase markedly
- expression of apoptosis positive proteins [5]: expressed apoptosis positive proteins, cleaved caspase 3, 7, 9, and poly ADP ribose polymerase (PARP)
- shChk2 log 2(RI) value [6]: 0.73
- shp53 log 2(RI) value [6]: 1.32
- RNAi signature classification against reference set [6]: represented novel mechanisms of drug action
